Data on 22 compounds can be found in paper PMC12668310, “High‐Throughput Synthesis and Screening of a Cyanimide Library Identifies Selective Inhibitors of ISG15‐Specific Protease mUSP18” (Angewandte Chemie (International Ed. in English), 2025).

One may read the inhibition as the change of the read-out against control, counted positive when it falls.

Like-named read-outs stand apart in the source and are kept apart here.

One assay deals with T1, mUSP18 (Mus musculus, UniProt Q9WTV6).
T1 construct: (46-368); His-tag (N); made in house
T1 sequence (Q9WTV6 46-368): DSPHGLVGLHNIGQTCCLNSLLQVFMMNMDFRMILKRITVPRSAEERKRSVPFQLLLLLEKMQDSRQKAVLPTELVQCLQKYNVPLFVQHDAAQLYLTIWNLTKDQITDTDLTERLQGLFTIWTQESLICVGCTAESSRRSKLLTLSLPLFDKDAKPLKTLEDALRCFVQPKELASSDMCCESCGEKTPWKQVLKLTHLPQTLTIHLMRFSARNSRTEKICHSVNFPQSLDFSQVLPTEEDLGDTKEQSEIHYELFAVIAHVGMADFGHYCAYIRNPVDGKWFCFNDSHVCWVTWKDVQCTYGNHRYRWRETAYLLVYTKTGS
Put plainly: High-throughput screening, ISG15ct-RhoMP, single dose 1.25 µM. In kind it is biochemical, murine.

The target of a further assay is T2, OTUD1 (Homo sapiens, UniProt Q5VV17).
T2 sequence (Q5VV17 287-481): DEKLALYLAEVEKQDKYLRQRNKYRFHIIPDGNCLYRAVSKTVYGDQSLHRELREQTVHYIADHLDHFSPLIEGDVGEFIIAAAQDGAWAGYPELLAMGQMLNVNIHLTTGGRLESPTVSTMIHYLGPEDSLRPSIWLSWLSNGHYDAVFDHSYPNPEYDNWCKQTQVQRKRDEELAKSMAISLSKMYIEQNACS
The experiment in a line: High-throughput screening, Ub-RhoMP, single dose 1.25 µM. It is filed as biochemical. As to conditions: crude in-plate synthesized compound, 1.25 µM assuming full conversion.

Another assay concerns the target T3, OTUB2 (Homo sapiens, UniProt Q96DC9).
T3 sequence (Q96DC9 1-234): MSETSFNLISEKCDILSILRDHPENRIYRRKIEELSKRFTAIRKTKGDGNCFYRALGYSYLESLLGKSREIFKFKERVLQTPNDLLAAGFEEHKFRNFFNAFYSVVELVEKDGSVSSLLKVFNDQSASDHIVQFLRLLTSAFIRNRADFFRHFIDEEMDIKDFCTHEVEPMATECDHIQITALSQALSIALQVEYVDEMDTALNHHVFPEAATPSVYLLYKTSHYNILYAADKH
The description is as above. The arrangement: (1-234); His6 (cleaved yes); made in house. As to conditions: individual amine building block (plate NCN-5); read-out: BB %inhibition OTUB2. It is filed as biochemical. As to the method: Since the in‐plate synthesis was conducted in 1536‐well Echo plates, the compounds could readily be transferred from these plates into 1536‐well assay plates using acoustic liquid dispensing (Figure 2a) and subjected to HTS. We screened the whole 7536 compound library against a panel of twelve enzymes, including three DUBs from the UCH family, two DUBs from the OTU family, five DUBs from the USP family, plus ISG15 protease USP18, and SUMO protease SENP1. Each compound was tested at a single dose of 1.25 µM, assuming full conversion (10 mM in DMSO of the formed products) during the in‐plate synthesis, using the fluorogenic assay described above. […] The compounds are sorted by the amine building blocks (BB1‐16), and within each BB, sorted by carboxylic acid (CA1‐471), thereby providing a comprehensive and systematic overview of the overall inhibition by each BB and CA combination. Some interesting patterns can be obtained from this map. […] Indeed, BB10 is the privileged scaffold for UCHL1 as it originates from UCHL1 inhibitor 5 (Figure 1). […] On the other hand, OTUD1 and USP32 show a much higher hit rate, and this is even more pronounced for USP30 and ISG15 protease mUSP18, each showing many active compounds distributed over several BB's.
Purified recombinant enzymes used in this study
High-throughput screening
The screens were performed at room temperature in “flat bottom, non-treated, black […]
µM. The compounds (10 nL each) were transferred from the 1 mM daughter plates to the […]
Four wells containing DMSO
(10 nL) and four wells containing NEM (10 mM final concentration) were used in each plate […]
solution (1.33x final concentration) was added to each well, followed by incubation for 30 min.
Next, 2 µL of a substrate solution (4x final concentration) was added to each well (Ub-RhoMP[2]
After 1h or 2h incubation the
The percentage inhibition was calculated for each well using the […]
Where FIx is the fluorescence intensity of each well, FIpos is the average fluorescence intensity of the positive (NEM) control wells, and FIneg is the average fluorescence intensity of the negative (DMSO) control wells.

[1] abbreviates: crude in-plate synthesized compound, 1.25 µM assuming full conversion, read-out: %inhibition mUSP18.
[2] abbreviates: individual amine building block (plate NCN-5), read-out: BB %inhibition mUSP18.

For `N#CN1CC[C@@H](NC(=O)c2nc(N3CCCC3)ncc2Cl)C1` [BB01CA90], the inhibition at 1.25 µM on mUSP18 (setting [1]) was determined as 27.1%. In addition, at OTUD1, the “%inhibition OTUD1” value is 7.7%. For `N#CN1CC[C@@H](NC(=O)C(Cc2c[nH]cn2)NS(=O)(=O)c2ccc(Cl)cc2)C1` (stereo partly shown) [BB01CA91] the same measures were 13.4% and -3.9%.

Regarding `N#CN1CC[C@@H](NC(=O)Cc2csc(-c3cnccn3)n2)C1` [BB01CA92], the inhibition at 1.25 µM on mUSP18 (setting [1]) came to 24.6%. In addition, the “%inhibition OTUD1” value on OTUD1 is -13.5%. Taken in the same sequence, the figures for `N#CN1CC[C@@H](NC(=O)CCN(Cc2ccccc2)S(=O)(=O)c2c(Cl)cccc2Cl)C1` [BB01CA93] were 74.1% and 1.5%. Taken in the same sequence, the figures for `N#CN1CC[C@@H](NC(=O)c2ncoc2-c2cccs2)C1` [BB01CA94] were 24.1% and -11.1%. On to `N#CN1CC[C@@H](N)C1` [BB1], for which the inhibition at 1.25 µM came to 6.8% on mUSP18 (setting [2]) and 3.3% on OTUB2.

Turning to `N#CN1CCC(N)CC1` [BB2], the results for the inhibition at 1.25 µM at mUSP18 (setting [2]) and at OTUB2 were 4.3% and 0.9%, respectively. Taken in the same sequence, the figures for `N#CN1CC[C@H](N)C1` [BB3] were 3.1% and 0.556%.

Turning to `N#CN1CCC[C@@H](N)C1` [BB4], the inhibition at 1.25 µM stood at 3.9% on mUSP18 (setting [2]) and 2.7% at OTUB2. Taken in the same sequence, the figures for `N#CN1CC(N)C1` [BB5] were -0.216% and -1.4%.

For the compound `N#CN1C[C@H]2C[C@@H](N)C[C@H]2C1` [BB6], the inhibition at 1.25 µM at mUSP18 (setting [2]) was -0.535%; on OTUB2, -1.5%.

Consider `Cc1cc(C(=O)N[C@H]2C[C@@H]3CN(C#N)C[C@@H]3C2)ccc1Br` [BB07CA28], for which, at mUSP18 (setting [1]), the inhibition at 1.25 µM came to 95%.

As to `N#CN1C[C@H]2C[C@H](N)C[C@H]2C1` [BB7], the inhibition at 1.25 µM on mUSP18 (setting [2]) is -3.9%; on OTUB2 it was -3.8%. For `N#CN1CCC[C@H](N)C1` [BB8] the same measures were -1.5% and -1.3%. Taken in the same sequence, the figures for `N#CN1CC[C@@H](NC(=O)c2ccc(CN)cc2)C1` [BB9] were 2% and -2%. Taken in the same sequence, the figures for `N#CN1CC[C@H](C(=O)Nc2nc3c(s2)CNCC3)C1` [BB10] were 0.154% and -5.1%.

For the compound `N#CN1CC[C@H](CN)C1` [BB11], the values for the inhibition at 1.25 µM on mUSP18 (setting [2]) and at OTUB2 were -3.8% and -6.8%, respectively. Taken in the same sequence, the figures for `N#CN1C[C@@H]2C[C@H]1CN2` [BB12] were -0.7% and -6%. For `N#CN1C[C@H](N)[C@@H](O)C1` [BB13] the same measures were -0.9% and 5.6%. Taken in the same sequence, the figures for `N#CN1CCC2(CCNC2)C1` (stereo not shown) [BB14] were -1% and 6.4%. Regarding `N#CN1C[C@@H](F)[C@@H](N)C1` [BB15], the inhibition at 1.25 µM at mUSP18 (setting [2]) is -5.8%; on OTUB2 it was -0.269%. Taken in the same sequence, the figures for `N#CN1CCC(n2cc(N)cn2)CC1` [BB16] were -4.3% and 0.0345%.
